In patent US12274725B2, “Zika virus strains for treatment of glioma” (priority 2017, dated 2025):

How the values were obtained:
GSC lines (387 and 3565) = assay: Temozolomide cytotoxicity assay; format: cell-based, human; settings: 7 days
Method: Two GSC lines (387 and 3565) were treated with indicated concentrations of temozolomide for 7 days. Relative cell number was assayed by CellTiter-Glo on day 7 and normalized to PBS control.
GSCs were plated at 1,000 cells/well in 96-well tissue culture treated plates (TPP) and allowed to attach overnight. For viral infection and growth inhibition assays, wild-type ZIKV-Dakar, ZIKV-Brazil, or mouse adapted ZIKV-Dakar were used at an MOI of 5. For combined drug+virus therapy experiments, wild-type parental ZIKV-Cambodia and its derivative ZIKV-E218A were used for infection. Temozolomide (TMZ, Sigma) was dissolved in PBS and diluted in Neurobasal complete media. ZIKV was added at an MOI of 5 by itself or 4 h before TMZ (250 μM) addition. Cell supernatants were stored at −80° C. for subsequent analysis.

recurrent GBM = settings: cited from earlier work

Molecule | effective TMZ concentration (GSC lines (387 and 3565)) [µM] | safety in patients (recurrent GBM; in vivo) | overall response rate (recurrent GBM; recurrent GBM)
Cn1nnc2c(C(N)=O)ncn2c1=O [TMZ, Temozolomide] | 250 |  | 
nivolumab: immune checkpoint inhibitor tested in CheckMate 143 |  | safe | lower than the current standard, bevacizumab
